For data set [1], the target named is T1, MjCobT (Methanocaldococcus jannaschii, UniProt Q58993).
T1 construct: gene MJ1598; expressed in E. coli BL21-CodonPlus from pTEV5; N-terminal His6 tag cut with rTEV; Met 1 to Tyr 348 modelled; dimer
The data set is described as follows: turnover in crystal, product seen by X-ray. Format: biochemical. Conditions: free base not seen in the structure.

For data set [2], the target named is T1, MjCobT. The data set is described as follows: X-ray crystal structure of complex, […] Å. Format: binding.
Data set [3] has as its target T1, MjCobT. Put plainly: X-ray crystal structure of complex, […] Å. Format: binding. Conditions: formed in the crystal from NaMN and adenine; active site with nicotinic acid.
Data set [4] concerns the molecule itself. Put plainly: crystal structure; three crystal forms of MjCobT grown at room temperature: apo (P41212, 1 subunit per asymmetric unit), with NaMN and α-RP + nicotinic acid (P21, 2 subunits), with α-AMP + nicotinic acid (P21, 2 subunits); molecular replacement with 3L0Z.

Results on six molecules are retold here after PMC9561151, “Structural studies of the phosphoribosyltransferase involved in cobamide biosynthesis in methanogenic archaea and cyanobacteria” (Scientific Reports, 2022).

In the case of `Cc1cc2nc[nH]c2cc1C` [DMB], the “turnover in crystal, product seen by X-ray” value at MjCobT [1] (1 mM DMB in crystallization, NaMN soak overnight) is listed as “During that time the enzyme catalyzed a transferase reaction”. As to `O=C([O-])c1ccc[n+]([C@@H]2O[C@H](COP(=O)(O)O)[C@@H](O)[C@H]2O)c1` [NaMN], on MjCobT [2] (crystals grown with DMB, soaked overnight in 1 mM NaMN, NaMN in active site of chain A), the “X-ray crystal structure of complex, 2.3 Å” value is on record as “NaMN lies at the base of the active site for chain A”. Consider `Nc1ncnc2[nH]cnc12` [adenine], for which, at MjCobT [1] (1 mM adenine and 1 mM NaMN soak, pH 8.5), the “turnover in crystal, product seen by X-ray” value is “the reaction product was prepared in situ by soaking the crystals in NaMN and adenine”.

Take `Nc1ncnc2ncn([C@H]3O[C@H](COP(=O)(O)O)[C@@H](O)[C@H]3O)c12` [α-AMP]: at MjCobT [3], the “X-ray crystal structure of complex, 1.4 Å” value was “the crystals were highly ordered and the position of α-AMP is unequivocal”. As for `Cc1cc2ncn([C@H]3O[C@H](COP(=O)(O)O)[C@@H](O)[C@H]3O)c2cc1C` [α-RP], on MjCobT [2] (formed in the crystal from NaMN and DMB, active site of chain B with nicotinic acid, occupancy below 1.0), the “X-ray crystal structure of complex, 2.3 Å” value was “One subunit contains NaMN, whereas the second includes α-RP and nicotinic acid”.

B1: Methanocaldococcus jannaschii nicotinate mononucleotide:base phosphoribosyltransferase (MjCobT) (enzyme)
chain: MSIIAINENGFLDKIKGRNPLFTCVISSIETTLSIPISGVHRDVIKYTPSADVELVFYGKSLTLKTPPIDATGSPTPATITRACVELKNIKNLHIDAGAFVKPKIPFIEIDEKPTGRIEEGKAMNNSKELYMKGYLLGKNLDAELLIVGESVPGGTTTALGVLLGLGYDAEGKVSSGSINNPHELKIKVVREGLKKAGINEKSSVFDVLNAVGDKMMPVVAGLAISFAERNKPVILAGGTQMSAVLAVIKEINKKVLDKNLIAIGTTEFVLNDKKGDLKGIVEQIGNVPVLASKFYFEKAKIEGLKNYCKGSVKEGVGAGGIAVYSIVNDLEPTKIREFIENKFYEWYKE
notes: CobT (NaMN:base phosphoribosyltransferase) of Methanocaldococcus jannaschii; the modelled chain runs from Met 1 to Tyr 348; also called PRTase from Methanocaldococcus jannaschii; source: E. coli BL21-CodonPlus, purified (80 °C heat step, Ni-NTA, rTEV cleavage, second Ni-NTA); not shown: His6, N-terminal, cleaved
As a reminder, the stoichiometry N is the number of molecules, sites or subunits per partner or assembly. As to B1, in data set [4], the “stoichiometry N” value worked out at 2.
